Calls of active or inactive are those of the source. The rule behind the calls is not given here.
How the values were obtained:
[1] = Partition coefficient, Log P of the compound; assay type: physicochemical; details: octanol/water
[2] = system: K562; assay: Photocytotoxicity against human K562 cells at 2 uM; assay type: functional, cell-based
[3] = system: K562; assay: Cytotoxicity against human K562 cells at 2 uM after 24 hrs in dark; assay type: functional, cell-based

logP [1]	SMILES	Activity [2]	Activity [3]
-0.45	C=Cc1c(C)c2cc3nc(c(CC(=O)NCCCCNCCCN(C)CCCCN)c4nc(cc5[nH]c(cc1[nH]2)c(C)c5CC)C(C)=C4C(=O)NCCCCNCCCN(C)CCCCN)[C@@H](CCC(=O)NCCNCCCN(C)CCCCN)[C@@H]3C	Active	Active
-0.83	C=Cc1c(C)c2cc3nc(c(CC(=O)NCCCCNCCCN(C)CCCCNCCCN)c4nc(cc5[nH]c(cc1[nH]2)c(C)c5CC)C(C)=C4C(=O)NCCCCNCCCN(C)CCCCNCCCN)[C@@H](CCC(=O)NCCNCCCN(C)CCCCNCCCN)[C@@H]3C	Active	Active
-1.87	CN(CCCN)CCCCNCCCCNC(=O)c1ccc(-c2c3nc(c(-c4ccc(C(=O)NCCCCNCCCCN(C)CCCN)cc4)c4ccc([nH]4)c(-c4ccc(C(=O)NCCCCNCCCN(C)CCCCN)cc4)c4ccc([nH]4)c(-c4ccc(C(=O)NCCCCNCCCN(C)CCCCN)cc4)c4nc2CC4)C=C3)cc1	–	–
-1.98	CN(CCCCNCCCCNC(=O)c1ccc(-c2c3nc(c(-c4ccc(C(=O)NCCCCNCCCCN(C)CCCNCCCN)cc4)c4ccc([nH]4)c(-c4ccc(C(=O)NCCCCNCCCN(C)CCCCNCCCN)cc4)c4ccc([nH]4)c(-c4ccc(C(=O)NCCCCNCCCN(C)CCCCNCCCN)cc4)c4nc2CC4)C=C3)cc1)CCCNCCCN	–	–
